Data on five compounds can be found in patent US8314127B2, “Piperidine derivatives” (Astrazeneca AB, priority 2005, dated 2012).

For assay [1], the target named is T1, CCR3 (Homo sapiens, UniProt P51677).
T1 sequence (P51677 1-355): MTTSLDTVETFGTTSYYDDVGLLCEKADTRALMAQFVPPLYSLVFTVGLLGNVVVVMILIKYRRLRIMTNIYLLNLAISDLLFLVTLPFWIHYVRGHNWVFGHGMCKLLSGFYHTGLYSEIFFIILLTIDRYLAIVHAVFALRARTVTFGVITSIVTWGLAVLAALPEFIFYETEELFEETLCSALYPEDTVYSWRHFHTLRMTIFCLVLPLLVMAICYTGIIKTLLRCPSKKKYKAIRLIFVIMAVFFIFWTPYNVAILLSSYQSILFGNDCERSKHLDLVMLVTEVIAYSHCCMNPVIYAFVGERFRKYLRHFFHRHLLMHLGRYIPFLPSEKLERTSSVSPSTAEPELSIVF
As to the kind of experiment: Compound affinity at human recombinant CCR3 receptors, radioligand competition on CHO-K1 cell membranes. It counts as binding. Also noted: expressed in transfected cells; host or cells: CHO-K1. Conditions: 2 nM [3H]-4-(2,4-dichloro-3-methylphenoxy)-1'-[4-(methylsulfonyl)benzoyl]-1,4'-bipiperidine, 2 h at 37° C., mean of minimum 2 experiments; for Ki: read-out: CCR3 pKi (converted).

Assay [2] deals with T1, CCR3. The experiment in a line: Eotaxin-2-induced shape change in eosinophils in human blood in vitro. The format is cell-based. Details: Human blood, collected by venous puncture into 9 mL lithium-heparin tubes; endogenous in cells; host or cells: eosinophils in human whole blood. Conditions: eotaxin-2 E/[A] curve displacement, 4 min at 37° C., flow cytometry forward scatter, read-out: CCR3 pA2 (converted).

The target of a further assay is T2, human H1 receptor (Homo sapiens, UniProt P35367).
T2 construct: purchased Euroscreen SA, Brussels, Belgium ES-390-M; host or cells: CHO-K1
The experiment in a line: Histamine H1 receptor binding, competition displacement of [3H]-pyrilamine. Conditions: 1 nM [3H]-pyrilamine, membranes from recombinant CHO-K1 cells, 1 hour at room temperature; read-out: H1 pKi (converted).

T2 sequence (P35367 whole entry): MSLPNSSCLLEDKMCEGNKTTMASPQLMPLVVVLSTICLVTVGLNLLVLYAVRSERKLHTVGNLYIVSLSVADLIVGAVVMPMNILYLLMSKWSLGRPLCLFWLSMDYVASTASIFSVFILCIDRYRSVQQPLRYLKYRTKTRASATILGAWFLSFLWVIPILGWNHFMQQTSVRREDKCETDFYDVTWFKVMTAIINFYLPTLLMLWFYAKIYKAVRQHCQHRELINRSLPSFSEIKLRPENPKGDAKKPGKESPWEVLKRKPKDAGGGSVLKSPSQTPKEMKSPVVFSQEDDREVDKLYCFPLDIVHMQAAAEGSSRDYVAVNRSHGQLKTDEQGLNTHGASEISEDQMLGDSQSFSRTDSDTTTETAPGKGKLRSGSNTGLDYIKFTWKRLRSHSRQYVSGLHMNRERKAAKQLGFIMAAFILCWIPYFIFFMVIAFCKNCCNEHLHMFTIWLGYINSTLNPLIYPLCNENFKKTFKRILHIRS

Take `COc1ccccc1C[C@@H](C(=O)O)N1CCC(CN2CCC(Oc3ccc(Cl)c(Cl)c3C)CC2)CC1` [Example 2, (2S)-2-[4-[[4-(3,4-dichloro-2-methyl-phenoxy)-1-piperidyl]methyl]-1-piperidyl]-3-(2-methoxyphenyl)-propanoic acid]: on CCR3 [1], the Ki was 0.631 nM. The Kb on CCR3 [2] is 20 nM.
Take `Cc1c(OC2CCN(CC3CCN([C@@H](Cc4ccc(C#N)cc4)C(=O)O)CC3)CC2)ccc(Cl)c1Cl` [Example 3, (2S)-3-(4-cyanophenyl)-2-[4-[[4-(3,4-dichloro-2-methyl-phenoxy)-1-piperidyl]methyl]-1-piperidyl]-propanoic acid]: the Ki on CCR3 [1] was 0.501 nM; at human H1 receptor it was 31.6 nM. Moreover, on CCR3 [2], the Kb was 20 nM.
For `CCc1c(OC2CCN(CC3CCN([C@@H](Cc4ccccc4)C(=O)O)CC3)CC2)ccc(Cl)c1Cl` [Example 13, (2S)-2-[4-[[4-(3,4-dichloro-2-ethyl-phenoxy)-1-piperidyl]methyl]-1-piperidyl]-3-phenylpropanoic acid], in that order: 1.26 nM, 100 nM and 200 nM.
`CCc1c(OC2CCN(CC3CCN([C@@H](Cc4ccc(F)cc4)C(=O)O)CC3)CC2)ccc(Cl)c1Cl` [Example 14, (2S)-2-[4-[[4-(3,4-dichloro-2-ethyl-phenoxy)-1-piperidyl]methyl]-1-piperidyl]-3-(4-fluorophenyl)-propanoic acid]: the Ki at CCR3 [1] is 0.501 nM. For the same compound, the Kb at CCR3 [2] was 200 nM.
`Cc1c(OC2CCN(CC3CCN([C@@H](Cc4ccccc4)C(=O)O)CC3)CC2)ccc(C#N)c1Cl` [Example 15, (22S)-2-(4-{[4-(3-chloro-4-cyano-2-methylphenoxy)-piperidin-1-yl]methyl}piperidin-1-yl)-3-phenylpropanoic acid]: on CCR3 [1], the “CCR3 pKi” value was determined as 8.2.
